# Values quoted from earlier work, collected in patent US20250332127A1, “SYSTEM AND METHOD FOR DELIVERING THERAPEUTIC AGENTS TO THE UTERINE CAVITY” (priority 2021, published 2025).
# Where two headings read alike, the source gives them in different places.
SMILES,viscosity (at 20 degrees of Celsius),viscosity (trichloroacetic acid as used as therapeutic agent)
O=C=O [CO2],0.0147 centipoise,
O=C(O)C(Cl)(Cl)Cl [trichloroacetic acid],,≥ 1 centipoise
